This experiment addresses Nicotinamide phosphoribosyltransferase (Homo sapiens, UniProt P43490). As to the kind of experiment: NAMPT Enzyme Activating Effect (In Vitro Cell-Free Enzyme Assay.

Sequence of Nicotinamide phosphoribosyltransferase (P43490 whole entry): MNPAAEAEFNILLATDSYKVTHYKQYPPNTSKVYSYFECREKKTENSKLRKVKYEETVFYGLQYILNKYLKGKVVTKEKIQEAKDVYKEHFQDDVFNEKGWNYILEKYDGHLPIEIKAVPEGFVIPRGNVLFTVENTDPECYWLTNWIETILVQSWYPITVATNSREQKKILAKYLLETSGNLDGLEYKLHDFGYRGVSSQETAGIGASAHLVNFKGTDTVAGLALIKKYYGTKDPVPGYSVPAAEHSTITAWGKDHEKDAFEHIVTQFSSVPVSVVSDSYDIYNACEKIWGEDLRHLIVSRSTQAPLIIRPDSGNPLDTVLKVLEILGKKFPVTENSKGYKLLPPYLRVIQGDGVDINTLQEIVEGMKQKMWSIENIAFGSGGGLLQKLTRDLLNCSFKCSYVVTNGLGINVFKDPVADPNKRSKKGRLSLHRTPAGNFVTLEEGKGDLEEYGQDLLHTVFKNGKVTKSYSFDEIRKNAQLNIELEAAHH

For the compound `O=C(NCc1ccncc1)Nc1ccn2nc(-c3ccccc3)nc2c1` [US11918568, Example 15], the concentration for a half-maximal effect (EC50) was found to be 230 nM.

These data come from BindingDB's records for patent US11918568 (Sanford Burnham Prebys Medical Discovery Institute, 2024).
